Measured values reported in article PMC3848336, “Aurora Isoform Selectivity: Design and Synthesis of Imidazo[4,5-b]pyridine Derivatives as Highly Selective Inhibitors of Aurora-A Kinase in Cells” (Journal of Medicinal Chemistry, 2013).
“And” between values parts separate entries of the source, which are not always exact repeats. Equal values may be shown once.

Key:
In vivo mouse PK = conditions: plasma, mouse (female Balb/C), 5 mg kg^–1
Experimental: (§1) Mice (female Balb/C) were dosed po or iv with 28c (5 mg kg^–1) in 10% DMSO and 5% Tween 20 in saline. After administration, the mice were sacrificed at 5, 15, and 30 min and 1, 2, 4, 6, and 24 h. Blood was removed by cardiac puncture and centrifuged to obtain plasma samples. The plasma samples (100 μL) were added to the analytical internal standard (IS; olomoucine), followed by protein precipitation with 300 μL of methanol. Following centrifugation (1200g, 30 min, 4 °C), the resulting supernatants were analyzed for 28c levels by LC/MS using a reversed-phase X-Bridge C18 (Waters, 50 × 2.1 mm) analytical column and positive ion mode ESI MRM on a Waters 2795 liquid chromatography system coupled to a Quattro Ultima triple-quadrupole mass spectrometer (Waters).
as §1, with “40f” for “28c”, “The plasma samples (100 μL) were added to the analytical internal standard (IS; olomoucine), followed by protein precipitation with 300 μL of methanol.” left out, “Polar RP (Phenomenex,” for “X-Bridge C18 (Waters,”, “2” for “2.1”

AMPK = assay: Kinase selectivity profiling; type: biochemical; conditions: 1 µM; 110-kinase panel
Text: (§2) Compound 28c was profiled against a panel of 110 kinases at the International Centre for Protein Kinase Profiling, Division of Signal Transduction Therapy, University of Dundee. Compound 40f was profiled against a panel of 50 kinases (MRC-PPU Express Screen) also at the International Centre for Protein Kinase Profiling.

BRSK1 = BRSK1 (Homo sapiens, UniProt Q8TDC3); assay: Kinase selectivity profiling; type: biochemical; conditions: 110-kinase panel
Text: as §2

CDK2-Cyclin A = CDK2-Cyclin A (Homo sapiens, UniProt P24941); assay: Kinase selectivity profiling; type: biochemical; conditions: 110-kinase panel, read-out: % activity remaining, CDK22Cyclin A
Text: as §2

CHK1 = CHK1 (Homo sapiens, UniProt O14757); assay: Kinase selectivity profiling; type: biochemical; conditions: 110-kinase panel
Text: as §2

CK1 = CK1 (Homo sapiens, UniProt P48730); assay: Kinase selectivity profiling; type: biochemical; conditions: 110-kinase panel
Text: as §2

CLK2 = CLK2 (Homo sapiens, UniProt P49760); assay: Kinase selectivity profiling; type: biochemical; conditions: 110-kinase panel
Text: as §2

CSK = CSK (Homo sapiens, UniProt P41240); assay: Kinase selectivity profiling; type: biochemical; conditions: 110-kinase panel
Text: as §2

DYRK2 = DYRK2 (Homo sapiens, UniProt Q92630); assay: Kinase selectivity profiling; type: biochemical; conditions: 110-kinase panel
Chain of DYRK2 (Q92630 whole entry): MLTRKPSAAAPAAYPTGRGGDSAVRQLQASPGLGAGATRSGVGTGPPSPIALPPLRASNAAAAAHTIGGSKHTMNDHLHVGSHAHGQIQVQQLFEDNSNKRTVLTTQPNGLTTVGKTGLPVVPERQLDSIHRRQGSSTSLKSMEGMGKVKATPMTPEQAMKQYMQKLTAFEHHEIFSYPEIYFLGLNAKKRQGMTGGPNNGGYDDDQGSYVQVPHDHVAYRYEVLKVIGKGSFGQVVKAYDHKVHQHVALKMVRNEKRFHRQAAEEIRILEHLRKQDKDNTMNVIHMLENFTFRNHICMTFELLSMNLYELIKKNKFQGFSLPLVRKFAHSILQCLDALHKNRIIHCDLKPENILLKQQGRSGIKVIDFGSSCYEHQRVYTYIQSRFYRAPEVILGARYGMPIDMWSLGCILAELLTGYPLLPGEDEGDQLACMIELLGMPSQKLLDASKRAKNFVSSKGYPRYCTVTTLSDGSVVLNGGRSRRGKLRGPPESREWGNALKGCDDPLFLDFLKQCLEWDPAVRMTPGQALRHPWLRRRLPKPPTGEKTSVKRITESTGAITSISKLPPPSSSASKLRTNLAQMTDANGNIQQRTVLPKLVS
Text: as §2

DYRK3 = DYRK3 (Homo sapiens, UniProt O43781); assay: Kinase selectivity profiling; type: biochemical; conditions: 110-kinase panel
Text: as §2

EPH-B3 = EPH-B3 (Homo sapiens, UniProt P54753); assay: Kinase selectivity profiling; type: biochemical; conditions: 110-kinase panel, read-out: % activity remaining, EPH2B3
Text: as §2

ERK8 = ERK8 (Homo sapiens, UniProt Q8TD08); assay: Kinase selectivity profiling; type: biochemical; conditions: 110-kinase panel
Text: as §2

HIPK3 = HIPK3 (Homo sapiens, UniProt Q9H422); assay: Kinase selectivity profiling; type: biochemical; conditions: 110-kinase panel
Text: as §2

IKKe = IKKe (Homo sapiens, UniProt Q14164); assay: Kinase selectivity profiling; type: biochemical; conditions: 110-kinase panel
Chain of IKKe (Q14164 whole entry): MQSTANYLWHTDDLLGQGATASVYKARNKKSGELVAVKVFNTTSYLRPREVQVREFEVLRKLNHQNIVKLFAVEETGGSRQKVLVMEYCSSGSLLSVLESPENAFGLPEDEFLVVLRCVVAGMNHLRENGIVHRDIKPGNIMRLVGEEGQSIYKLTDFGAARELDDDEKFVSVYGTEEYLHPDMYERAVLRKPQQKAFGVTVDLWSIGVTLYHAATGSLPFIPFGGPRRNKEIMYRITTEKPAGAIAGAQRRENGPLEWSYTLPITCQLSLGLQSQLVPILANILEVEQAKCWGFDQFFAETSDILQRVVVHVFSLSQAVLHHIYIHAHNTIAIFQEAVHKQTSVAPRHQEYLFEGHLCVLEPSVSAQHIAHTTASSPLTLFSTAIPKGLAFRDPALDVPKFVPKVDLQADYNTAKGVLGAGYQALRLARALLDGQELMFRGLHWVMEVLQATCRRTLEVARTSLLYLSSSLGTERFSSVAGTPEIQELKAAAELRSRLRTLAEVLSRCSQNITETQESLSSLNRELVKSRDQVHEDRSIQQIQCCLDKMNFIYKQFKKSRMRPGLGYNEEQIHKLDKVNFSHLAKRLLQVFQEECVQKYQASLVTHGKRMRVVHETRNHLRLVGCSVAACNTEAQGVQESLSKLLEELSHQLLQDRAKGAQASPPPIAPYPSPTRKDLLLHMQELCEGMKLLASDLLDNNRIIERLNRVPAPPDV
Text: as §2

MAPKAP-K3 = MAPKAP-K3 (Homo sapiens, UniProt Q16644); assay: Kinase selectivity profiling; type: biochemical; conditions: 110-kinase panel, read-out: % activity remaining, MAPKAP2K3
Text: as §2

MEKK1 = MEKK1 (Homo sapiens, UniProt Q13233); assay: Kinase selectivity profiling; type: biochemical; conditions: 110-kinase panel
Text: as §2

MELK = MELK (Homo sapiens, UniProt Q14680); assay: Kinase selectivity profiling; type: biochemical; conditions: 110-kinase panel
Chain of MELK (Q14680 whole entry): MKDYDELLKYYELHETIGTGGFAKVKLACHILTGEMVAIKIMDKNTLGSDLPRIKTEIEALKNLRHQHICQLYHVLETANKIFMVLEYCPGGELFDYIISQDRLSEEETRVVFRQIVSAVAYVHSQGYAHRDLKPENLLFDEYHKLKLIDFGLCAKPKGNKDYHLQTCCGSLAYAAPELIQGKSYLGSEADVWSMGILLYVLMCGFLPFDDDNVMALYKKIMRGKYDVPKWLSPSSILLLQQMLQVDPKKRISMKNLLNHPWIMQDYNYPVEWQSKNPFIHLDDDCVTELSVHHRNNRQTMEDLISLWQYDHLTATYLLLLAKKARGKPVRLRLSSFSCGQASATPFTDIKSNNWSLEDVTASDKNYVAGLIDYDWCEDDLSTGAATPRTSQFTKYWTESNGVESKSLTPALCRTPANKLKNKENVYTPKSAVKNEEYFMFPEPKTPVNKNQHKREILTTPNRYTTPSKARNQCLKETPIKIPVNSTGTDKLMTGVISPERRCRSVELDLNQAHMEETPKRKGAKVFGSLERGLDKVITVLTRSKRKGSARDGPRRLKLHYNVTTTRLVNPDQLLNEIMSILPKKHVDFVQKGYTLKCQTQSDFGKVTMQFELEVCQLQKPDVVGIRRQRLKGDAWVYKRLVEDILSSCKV
Text: as §2

MKK6 = MKK6 (Homo sapiens, UniProt P52564); assay: Kinase selectivity profiling; type: biochemical; conditions: 110-kinase panel
Chain of MKK6 (P52564 whole entry, species assumed): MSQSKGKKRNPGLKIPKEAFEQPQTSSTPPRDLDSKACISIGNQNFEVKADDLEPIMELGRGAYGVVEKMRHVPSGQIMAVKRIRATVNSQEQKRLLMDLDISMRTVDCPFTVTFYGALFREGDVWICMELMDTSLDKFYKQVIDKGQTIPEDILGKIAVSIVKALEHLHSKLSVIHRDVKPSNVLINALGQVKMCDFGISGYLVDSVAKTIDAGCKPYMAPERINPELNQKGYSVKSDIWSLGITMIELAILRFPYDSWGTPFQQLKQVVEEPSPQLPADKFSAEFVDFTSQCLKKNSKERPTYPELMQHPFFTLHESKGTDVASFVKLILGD
Text: as §2

MNK1 = MNK1 (Homo sapiens, UniProt Q9BUB5); assay: Kinase selectivity profiling; type: biochemical; conditions: 110-kinase panel
Chain of MNK1 (Q9BUB5 whole entry, species assumed): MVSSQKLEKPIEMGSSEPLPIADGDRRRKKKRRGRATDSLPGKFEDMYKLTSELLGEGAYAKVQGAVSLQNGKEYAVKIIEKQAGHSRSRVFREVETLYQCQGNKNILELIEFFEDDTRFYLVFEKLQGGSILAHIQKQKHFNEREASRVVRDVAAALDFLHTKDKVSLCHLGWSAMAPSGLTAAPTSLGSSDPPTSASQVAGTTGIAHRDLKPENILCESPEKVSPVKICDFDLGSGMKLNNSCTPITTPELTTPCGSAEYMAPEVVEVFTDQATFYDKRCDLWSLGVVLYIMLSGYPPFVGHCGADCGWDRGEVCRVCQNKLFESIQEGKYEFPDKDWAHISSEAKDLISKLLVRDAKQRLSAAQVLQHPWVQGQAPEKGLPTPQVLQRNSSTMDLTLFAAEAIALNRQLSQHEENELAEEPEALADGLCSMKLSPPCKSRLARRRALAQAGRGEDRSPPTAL
Text: as §2

MNK2 = MNK2 (Homo sapiens, UniProt Q9HBH9); assay: Kinase selectivity profiling; type: biochemical; conditions: 110-kinase panel
Text: as §2

NEK2a = NEK2a (Homo sapiens, UniProt P51955); assay: Kinase selectivity profiling; type: biochemical; conditions: 110-kinase panel
Text: as §2

PAK5 = PAK5 (Homo sapiens, UniProt Q9P286); assay: Kinase selectivity profiling; type: biochemical; conditions: 110-kinase panel
Text: as §2

PHK = PHK (Homo sapiens, UniProt Q16816); assay: Kinase selectivity profiling; type: biochemical; conditions: 110-kinase panel
Text: as §2

PIM3 = PIM3 (Homo sapiens, UniProt Q86V86); assay: Kinase selectivity profiling; type: biochemical; conditions: 110-kinase panel
Text: as §2

PKBb = PKBb (Homo sapiens, UniProt P31751); assay: Kinase selectivity profiling; type: biochemical; conditions: 110-kinase panel
Text: as §2

PKCz = PKCz (Homo sapiens, UniProt Q05513); assay: Kinase selectivity profiling; type: biochemical; conditions: 110-kinase panel
Text: as §2

Aurora B = Aurora B (Homo sapiens, UniProt Q96GD4); assay: Cellular inhibition of histone H3 phosphorylation at S10 (Aurora-B biomarker) in HCT116 cells; type: cell-based
Chain of Aurora B (Q96GD4 whole entry): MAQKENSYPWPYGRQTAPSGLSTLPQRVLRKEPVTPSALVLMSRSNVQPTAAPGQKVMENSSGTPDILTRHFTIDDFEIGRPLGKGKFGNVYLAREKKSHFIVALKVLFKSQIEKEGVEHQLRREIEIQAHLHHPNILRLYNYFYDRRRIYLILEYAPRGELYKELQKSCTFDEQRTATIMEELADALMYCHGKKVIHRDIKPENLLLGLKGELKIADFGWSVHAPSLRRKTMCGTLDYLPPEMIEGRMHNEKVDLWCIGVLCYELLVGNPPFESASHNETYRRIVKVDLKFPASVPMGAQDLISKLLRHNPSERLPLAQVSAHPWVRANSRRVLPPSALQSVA
Chain of Aurora B (Q9NQS7 whole entry partner): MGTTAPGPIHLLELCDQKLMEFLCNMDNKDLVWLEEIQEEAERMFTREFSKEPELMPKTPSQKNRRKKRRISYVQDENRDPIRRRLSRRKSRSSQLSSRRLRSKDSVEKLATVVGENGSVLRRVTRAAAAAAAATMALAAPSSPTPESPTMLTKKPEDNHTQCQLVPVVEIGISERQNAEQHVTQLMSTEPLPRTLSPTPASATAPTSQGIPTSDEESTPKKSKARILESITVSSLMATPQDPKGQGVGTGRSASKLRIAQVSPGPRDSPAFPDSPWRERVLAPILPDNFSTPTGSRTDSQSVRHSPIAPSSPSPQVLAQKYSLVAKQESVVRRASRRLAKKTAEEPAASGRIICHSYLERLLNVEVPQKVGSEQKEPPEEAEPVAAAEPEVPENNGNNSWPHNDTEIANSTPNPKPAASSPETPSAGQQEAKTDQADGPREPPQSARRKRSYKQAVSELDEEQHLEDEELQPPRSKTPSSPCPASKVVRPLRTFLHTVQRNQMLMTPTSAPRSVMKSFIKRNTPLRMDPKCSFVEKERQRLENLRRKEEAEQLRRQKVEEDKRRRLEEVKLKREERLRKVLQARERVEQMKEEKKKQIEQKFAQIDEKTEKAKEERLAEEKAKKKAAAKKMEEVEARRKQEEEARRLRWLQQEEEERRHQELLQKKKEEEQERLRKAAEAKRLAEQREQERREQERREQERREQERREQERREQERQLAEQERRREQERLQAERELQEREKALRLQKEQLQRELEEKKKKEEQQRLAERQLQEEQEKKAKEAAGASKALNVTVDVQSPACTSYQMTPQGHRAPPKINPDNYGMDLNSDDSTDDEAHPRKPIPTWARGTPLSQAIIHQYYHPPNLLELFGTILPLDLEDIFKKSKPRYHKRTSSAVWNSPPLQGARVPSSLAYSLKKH
Chain of Aurora B (O15392 whole entry partner): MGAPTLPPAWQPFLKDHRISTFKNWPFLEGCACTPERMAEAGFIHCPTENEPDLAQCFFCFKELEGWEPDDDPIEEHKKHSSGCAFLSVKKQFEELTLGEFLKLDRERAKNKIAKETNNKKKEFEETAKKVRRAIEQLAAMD
Chain of Aurora B (Q53HL2 whole entry partner): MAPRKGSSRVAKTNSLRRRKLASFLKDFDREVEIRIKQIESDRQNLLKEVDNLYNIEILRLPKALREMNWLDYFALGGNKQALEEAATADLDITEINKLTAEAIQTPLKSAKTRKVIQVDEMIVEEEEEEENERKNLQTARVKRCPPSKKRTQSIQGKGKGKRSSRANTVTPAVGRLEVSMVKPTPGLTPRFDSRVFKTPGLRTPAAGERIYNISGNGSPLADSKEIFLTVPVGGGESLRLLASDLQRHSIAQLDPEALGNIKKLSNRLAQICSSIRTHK

CK1δ = CK1δ (Homo sapiens, UniProt P48730); assay: Kinase selectivity profiling; type: biochemical; conditions: 50-kinase panel (MRC-PPU Express Screen)
Text: as §2

AMPK (hum) = assay: Kinase selectivity profiling; type: biochemical, human; conditions: 1 µM; 50-kinase panel (MRC-PPU Express Screen)
Text: as §2

Cc1nn(C)cc1-c1nc2c(Oc3ccc(C(=O)Nc4ccccc4)cc3)c(Cl)cnc2[nH]1 [compound 28c, 4-((6-Chloro-2-(1,3-dimethyl-1H-pyrazol-4-yl)-3H-imidazo[4,5-b]pyridin-7-yl)oxy)-N-phenylbenzamide]
clearance (In vivo mouse PK): 0.883 mL/min and 44.2 mL/min/kg | Vd (In vivo mouse PK; read-out: volume of distribution): 0.036 L | % activity remaining, AMPK (AMPK): 83% | remaining activity at 1 µM (BRSK1): 109% | remaining activity at 1 µM (CDK2-Cyclin A): 58% | remaining activity at 1 µM (CHK1): 94% | remaining activity at 1 µM (CK1): 86% | remaining activity at 1 µM (CLK2): 84% | remaining activity at 1 µM (CSK): 76% | remaining activity at 1 µM (DYRK2): 87% | remaining activity at 1 µM (DYRK3): 102% | remaining activity at 1 µM (EPH-B3): 106% | remaining activity at 1 µM (ERK8): 36% | remaining activity at 1 µM (HIPK3): 96% | remaining activity at 1 µM (IKKe): 101% | remaining activity at 1 µM (MAPKAP-K3): 92% | remaining activity at 1 µM (MEKK1): 93% | remaining activity at 1 µM (MELK): 79% | remaining activity at 1 µM (MKK6): 95% | remaining activity at 1 µM (MNK1): 126% | remaining activity at 1 µM (MNK2): 109% | remaining activity at 1 µM (NEK2a): 96% | remaining activity at 1 µM (PAK5): 56% | remaining activity at 1 µM (PHK): 101% | remaining activity at 1 µM (PIM3): 102% | remaining activity at 1 µM (PKBb): 78% | remaining activity at 1 µM (PKCz): 100%

Cc1nn(C)cc1-c1nc2c(Oc3ccc(C(=O)NC4CCC4)cc3)c(Cl)cnc2[nH]1 [compound 40f, 4-((6-Chloro-2-(1,3-dimethyl-1H-pyrazol-4-yl)-3H-imidazo[4,5-b]pyridin-7-yl)oxy)-N-cyclobutylbenzamide]
histone H3 phosphorylation (Aurora B; 1.5 μM): increase in histone H3 phosphorylation | inhibition of histone H3 phosphorylation at S10 (Aurora B; 25 μM): partial inhibition | inhibition of histone H3 phosphorylation at S10 (Aurora B; 50 μM): complete inhibition | remaining activity at 1 µM (CK1δ): 87% | % activity remaining, AMPK (hum) (AMPK (hum)): 85%
